Values quoted from earlier work in patent US8143244B2, “Cyclopropyl fused indolobenzazepine HCV NS5B inhibitors” (Bristol-Myers Squibb Company, priority 2009, dated 2012).

How the values were obtained:
[1] = extended dosing of the combination regimens (interferon and ribavirin); cited from earlier work
HCV = conditions: cited from earlier work

Row | Molecule | hepatic toxicity [1] | HCV RNA levels in patients (HCV; single agent: transient decrease then rebound, more robust drop combined with interferon and ribavirin) | sustained efficacy in patients (HCV; HCV therapy)
1 | CNC(=O)c1c(-c2ccc(F)cc2)oc2cc(N(CCO)S(C)(=O)=O)c(C3CC3)cc12 [HCV-796] | hepatic toxicity observed | showed an ability to reduce HCV RNA levels in patients | 
2 | alpha-interferon and ribavirin |  |  | 40 % of patients
